Legend:
[1] = test system: PC3 (prostate); assay: Cytotoxicity on human cells, automated nuclei counting: PC3; type: cell-based; conditions: PC-3, exposed 24 h to 48 h, 0.1 to 25 μM
Experimental: (§1) Cytotoxicity: This method is based on an automated imaging analysis. 4.10^3 cells were cultivated on 96-well plates and left for 24 hours so as to bind, to spread and proliferate.
(§2) All the cell lines were cultivated in a DMEM or RPMI (Invitrogen) medium. All these media were completed with antibiotics (penicillin-streptomycin) (Lonza) and 10% by volume of fetal calf serum (Invitrogen). The cells were cultivated at 37° C. with 5% of CO2. The treatments with the molecules to be tested were carried out with increasing concentrations. The control experiments were also carried out by using suitable dilutions of DMSO (maximum 1% DMSO).

[2] = test system: Huh7 (liver); assay: Cytotoxicity on human cells, automated nuclei counting: Huh7; type: cell-based; conditions: Huh-7, exposed 24 h to 48 h, 0.1 to 25 μM
Experimental: as §1, §2

[3] = test system: MDA-MB 231 (breast); assay: Cytotoxicity on human cells, automated nuclei counting: MDA-MB 231; type: cell-based; conditions: MDA-MB 231 cells, exposed 24 h to 48 h, 0.1 to 25 μM
Experimental: as §1, §2

[4] = test system: HCT 116 (colon); assay: Cytotoxicity on human cells, automated nuclei counting: HCT 116; type: cell-based; conditions: HCT 116 cells, exposed 24 h to 48 h, 0.1 to 25 μM
Experimental: as §1, §2

[5] = test system: NCI (lung); assay: Cytotoxicity on human cells, automated nuclei counting: NCI; type: cell-based; conditions: exposed 24 h to 48 h, 0.1 to 25 μM
Experimental: as §1, §2

[6] = test system: fibroblast; assay: Cytotoxicity on human cells, automated nuclei counting: fibroblast; type: cell-based; conditions: exposed 24 h to 48 h, 0.1 to 25 μM
Experimental: as §1, §2

[7] = biological target: T1, CDK5/D25 (Homo sapiens, UniProt Q00535); assay: CDK5 kinase inhibition (33P-ATP, histone H1); type: biochemical; conditions: buffer C, 30° C., 15 μM ATP, read-out: IC50 μM Kinases CDK5
T1 construct: made in house
T1 sequence (Q00535 whole entry): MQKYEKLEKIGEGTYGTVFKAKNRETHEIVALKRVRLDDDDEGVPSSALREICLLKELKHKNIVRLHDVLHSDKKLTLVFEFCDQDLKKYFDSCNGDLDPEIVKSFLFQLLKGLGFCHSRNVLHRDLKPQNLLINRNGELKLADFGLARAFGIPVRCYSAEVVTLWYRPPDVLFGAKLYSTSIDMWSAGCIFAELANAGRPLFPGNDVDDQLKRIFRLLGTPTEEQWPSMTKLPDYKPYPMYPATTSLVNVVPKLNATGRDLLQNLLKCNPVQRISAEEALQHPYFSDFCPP
T1 sequence (Q15078 99-307 partner limits assumed): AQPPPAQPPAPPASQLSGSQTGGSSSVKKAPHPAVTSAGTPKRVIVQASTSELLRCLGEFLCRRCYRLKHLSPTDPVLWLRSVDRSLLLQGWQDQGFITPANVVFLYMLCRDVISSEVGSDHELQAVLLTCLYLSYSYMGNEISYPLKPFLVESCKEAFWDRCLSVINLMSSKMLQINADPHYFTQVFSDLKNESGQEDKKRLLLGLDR
Experimental: The protein kinase inhibition activities of the compounds of the invention are tested according to the following general procedure:
Buffer C: 60 mM β-glycerophosphate, 15 mM p-nitrophenyl-phosphate, 25 mM Mops (pH 7.2), 5 mM EGTA, 15 mM mgCl2, 1 mM DTT, 1 mM sodium vanadate and 1 mM phenylphosphate.
The controls were made with suitable dilutions of DMSO.
ATP (3.000 Ci/mmol.; 10 mCi/mL) in a final volume of 30 μL. After 30 mins of incubation at 30° C., 25 μL of supernatant aliquots were deposited on phosphocellulose Whatman P81 paper pieces of 2.5×3 cm, and after 20 seconds, the filters were washed five times (for at least 5 minutes each time) in a solution of 10 mL of phosphoric acid/1 litre of water. The wet filters were counted in the presence of 1 mL of scintillation fluid ACS (Amersham).

[8] = test system: Caco (colon); assay: Cytotoxicity on human cells, automated nuclei counting: Caco; type: cell-based; conditions: exposed 24 h to 48 h, 0.1 to 25 μM
Experimental: as §1, §2

Compound	melting point [°C]	IC50 [1] [µM]	IC50 [2] [µM]	IC50 [3] [µM]	IC50 [4] [µM]	IC50 [5] [µM]	IC50 [6] [µM]	IC50 [7] [µM]	IC50 [8] [µM]
O=C(Nc1cccc(Br)n1)Nc1cccc2c1C1CC3(CCN1C2=O)SCCS3 (stereo not drawn) [Compound 21, 1-(6-Bromopyridin-2-yl)-3-(6′-oxo-3′,4′,6′,10b′-tetrahydro-1′H-spiro[[1,3]dithiolane-2,2′-pyrido[2,1-a]isoindole]-10′-yl)urea]	170	4	2	4	2.5	6	9	> 10	3
O=C(Nc1ccccn1)Nc1cccc2c1C1CC3(CCN1C2=O)OCCO3 (stereo not drawn) [Compound 28, 1-(6′-Oxo-3′,4′,6′,10b′-tetrahydro-1′H-spiro[[1,3]dioxolane-2,2′-pyrido[2,1-a]isoindole]-10′-yl)-3-(pyridin-2-yl)urea]	–	1.5	1	1	0.6	4	3	11	0.6
O=C(Nc1cnccn1)Nc1cccc2c1C1CC3(CCN1C2=O)OCCO3 (stereo not drawn) [Compound 29, 1-(6′-Oxo-3′,4′,6′,10b′-tetrahydro-1′H-spiro[[1,3]dioxolane-2,2′-pyrido[2,1-a]isoindole]-10′-yl)-3-(pyrazin-2-yl)urea]	–	5	3	3	1.5	8	10	7.1	5
O=C(Nc1ccccn1)Nc1cccc2c1C1CCCCN1C2=O (stereo not drawn) [Compound 30, 1-(6-oxo-1,2,3,4,6,10b-hexahydropyrido[2,1-a]isoindol-10-yl)-3-(pyridin-2-yl)urea]	–	0.1	0.03	0.05	–	0.2	0.2	–	0.1
O=C(Nc1cnccn1)Nc1cccc2c1C1CCCCN1C2=O (stereo not drawn) [Compound 38, 1-(6-Oxo-1,2,3,4,6,10b-hexahydropyrido[2,1-a]isoindol-10-yl)-3-(pyrazin-2-yl)urea]	215	0.3	0.2	0.2	0.1	0.8	0.8	–	1
O=C1CCN2C(=O)c3cccc(NC(=O)Nc4ccccn4)c3C2C1 (stereo not drawn) [Compound 97, 1-(2,6-Dioxo-1,2,3,4,6,10b-hexahydropyrido[2,1-a]isoindol-10-yl)-3-(pyridin-2-yl)urea]	254	5	3	3	2	2	6	3.6	7
O=C1CCN2C(=O)c3cccc(NC(=O)Nc4cnccn4)c3C2C1 (stereo not drawn) [Compound 98, 1-(2,6-Dioxo-1,2,3,4,6,10b-hexahydropyrido[2,1-a]isoindol-10-yl)-3-(pyrazin-2-yl)urea]	–	> 25	> 25	> 25	20	> 25	> 25	> 10	25
O=C(Nc1ccccn1)Nc1cccc2c1C1C[C@@H](O)CCN1C2=O (stereo partly drawn) [Compound 104, 1-((2S)-2-Hydroxy-6-oxo-1,2,3,4,6,10b-hexahydropyrido[2,1-a]iso-indol-10-yl)-3-(pyridin-2-yl)urea]	220	3	2	3	1	3	2	2.1	7
Cc1cccnc1NC(=O)Nc1cccc2c1C1CC(O)CCN1C2=O (stereo not drawn) [Compound 107, 1-(2-Hydroxy-6-oxo-1,2,3,4,6,10b-hexahydropyrido[2,1-a]isoindol-10-yl)-3-(3-methylpyridin-2-yl)urea]	204 to 206	5	5	8	1.5	7	6	0.63	12
Cc1cccc(NC(=O)Nc2cccc3c2C2CC(O)CCN2C3=O)n1 (stereo not drawn) [Compound 108, 1-(2-Hydroxy-6-oxo-1,2,3,4,6,10b-hexahydropyrido[2,1-a]isoindol-10-yl)-3-(6-methylpyridin-2-yl)urea]	240 to 242	2	3	8	3	10	10	1	15

Continued, in another order:

melting point [°C]	Compound	IC50 [1] [µM]	IC50 [2] [µM]	IC50 [3] [µM]	IC50 [4] [µM]	IC50 [5] [µM]	IC50 [6] [µM]	IC50 [7] [µM]	IC50 [8] [µM]
180	O=C1c2cccc(NC(=S)Nc3ncccc3Br)c2C2CCCCN12 (stereo not drawn) [Compound 72, 1-(3-bromopyridin-2-yl)-3-(6-oxo-1,2,3,4,6,10b-hexahydropyrido[2,1-a]isoindol-10-yl)thiourea]	–	–	–	–	–	–	–	–
232	Cc1ccc(NC(=S)Nc2cccc3c2C2CCCCN2C3=O)nc1 (stereo not drawn) [Compound 73, 1-(5-methylpyridin-2-yl)-3-(6-oxo-1,2,3,4,6,10b-hexahydropyrido[2,1-a]isoindol-10-yl)thiourea]	–	–	–	–	–	–	–	–
184	O=C(Nc1cc[nH]n1)Nc1cccc2c1C1CC3(CCN1C2=O)SCCS3 (stereo not drawn) [Compound 77, 1-(6′-Oxo-3′,4′,6′,10b′-tetrahydro-1′H-spiro[[1,3]dithiolane-2,2′-pyrido[2,1-a]isoindole]-10′-yl)-3-(1H-pyrazol-3-yl)urea]	–	–	–	–	–	–	–	–
166	Nc1ccn(C(=O)Nc2cccc3c2C2CCCCN2C3=O)n1 (stereo not drawn) [Compound 78, 3-Amino-N-(6-oxo-1,2,3,4,6,10b-hexahydropyrido[2,1-a]isoindol-10-yl)-1H-pyrazole-1-carboxamide]	–	–	–	–	–	–	–	–
166	O=C(Nc1cccc2c1C1CCCCN1C2=O)NN1CCCCC1 (stereo not drawn) [Compound 85, N-(6-Oxo-1,2,3,4,6,10b-hexahydropyrido[2,1-a]isoindol-10-yl)-N′-(piperidin-1-yl)urea]	–	–	–	–	–	–	–	–
172	O=C(Nc1ccccc1)Nc1cccc2c1C1CCCCN1C2=O (stereo not drawn) [Compound 87, N-(6-Oxo-1,2,3,4,6,10b-hexahydropyrido[2,1-a]isoindol-10-yl)-N′-phenylurea]	–	–	–	–	–	–	–	–
183	O=C(NCc1ccccc1)Nc1cccc2c1C1CCCCN1C2=O (stereo not drawn) [Compound 92, N-Benzyl-N′-(6-oxo-1,2,3,4,6,10b-hexahydropyrido[2,1-a]isoindol-10-yl)urea]	–	–	–	–	–	–	–	–
230	O=C1CCN2C(=O)c3cccc(-n4c(=O)[nH]c5cnccc5c4=O)c3C2C1 (stereo not drawn) [Compound 99, 10-(2,4-dioxo-1,2-dihydropyrido[3,4-d]pyrimidin-3(4H)-yl)-1,3,4,10b-tetrahydropyrido[2,1-a]isoindole-2,6-dione]	–	–	–	–	–	–	–	–
> 260	Cc1cccnc1NC(=O)Nc1cccc2c1C1CC(=O)CCN1C2=O (stereo not drawn) [Compound 100, 1-(2,6-dioxo-1,2,3,4,6,10b-hexahydropyrido[2,1-a]isoindol-10-yl)-3-(3-methylpyridin-2-yl)urea]	–	–	–	–	–	–	–	–
226 to 228	Cc1cccc(NC(=O)Nc2cccc3c2C2CC(=O)CCN2C3=O)n1 (stereo not drawn) [Compound 101, 1-(2,6-dioxo-1,2,3,4,6,10b-hexahydropyrido[2,1-a]isoindol-10-yl)-3-(6-methyl-pyridin-2-yl)urea]	–	–	–	–	–	–	–	–
223 to 225	COc1cc(NC(=O)Nc2cccc3c2C2CC(=O)CCN2C3=O)nc2ccccc12 (stereo not drawn) [Compound 102, 1-(2,6-dioxo-1,2,3,4,6,10b-hexahydropyrido[2,1-a]isoindol-10-yl)-3-(4-methoxyquinolin-2-yl)urea]	–	–	–	–	–	–	–	–
204	O=C1c2cccc(-n3c(=O)[nH]c4cnccc4c3=O)c2C2CC3(CCN12)OCCO3 (stereo not drawn) [Compound 113, 3-(6′-oxo-3′,4′,6′,10b′-tetrahydro-1′H-spiro[[1,3]dioxolane-2,2′-pyrido[2,1-a]isoindole]-10′-yl)pyrido[3,4-d]pyrimidine-2,4(1H,3H)-dione]	–	–	–	–	–	–	–	–
> 290	O=C1c2cccc(-n3c(=O)[nH]c4ncccc4c3=O)c2C2CCCCN12 (stereo not drawn) [Compound 117, 3-(6-Oxo-1,2,3,4,6,10b-hexahydro-pyrido[2,1-a]isoindol-10-yl)-1H-pyrido[2,3-d]pyrimidine-2,4-dione]	–	–	–	–	–	–	–	–

From patent publication US20120095022A1, “DERIVATIVES OF 10-AMINO-1,2,3,4-TETRAHYDROPYRIDO[2,1-A]ISOINDOL-6(10BH)-ONES, METHOD FOR PREPARATION THEREOF AND THERAPEUTIC USES THEREOF” (UNIVERSITE D'ORLEANS, priority 2009, published 2012)
